What was measured:
[1] = test system: T. cruzi strain CL trypomastigotes; test: T. cruzi antitrypomastigote assay; type: cell-based, Trypanosoma cruzi; details: >10 = did not qualify at 10 μM screen
Vero cells = test: General/basal cytotoxicity, resazurin assay; details: Vero cells, 48 h, mean ± SD
[2] = test system: L. major strain IR173 promastigotes; test: Leishmania antipromastigote assay; type: cell-based; details: read-out: Anti-promastigote activity IC50

## O=[N+]([O-])c1ccc(/C=N/N=C/c2ccco2)cc1 [compound 12, (E)-1-(Furan-2-ylmethylene)-2-[(E)-4-nitrobenzylidene]hydrazine]
[1]
  Anti-trypomastigote activity IC50: complete loss
Vero cells
  General cytotoxicity Vero IC50: complete loss

## C[C@@H]1[C@H](O)[C@@H](C)/C=C/C=C/C=C/C=C/C=C/C=C/C=C/[C@H](O[C@@H]2O[C@H](C)[C@@H](O)[C@H](N)[C@@H]2O)C[C@@H]2O[C@](O)(C[C@@H](O)C[C@@H](O)[C@H](O)CC[C@@H](O)C[C@@H](O)CC(=O)O[C@H]1C)C[C@H](O)[C@H]2C(=O)O [AmB, amphotericin B]
[2]
  IC50: 30 ± 10 nM

Reference: article PMC10583827 (RSC Medicinal Chemistry, 2023)
